Test results published in US3985621A, “Stopping agents for enzyme reactions of dehydrogenase systems” (priority 1974, dated 1976).

Columns and labels:
[1] = Absorption at 340nm of NAD or NADP dissolved in aqueous strong alkali; type: physicochemical; conditions: e.g., sodium hydroxide or potassium hydroxide, then gradually decreased
Excerpt: Such changes continuously occur over several hours and the higher an alkali concentration is, the greater change is. It is, therefore, extremely difficult to find out such a condition that an enzyme reaction is stopped without any influence upon absorption of coenzyme, when an aqueous solution of a strong alkali having no buffer action is employed.

[2] = Stability of absorption intensity of coenzyme at 340nm after dissolution in CAPS buffer solution; type: physicochemical; conditions: for O.D. change at 340nm (change in absorbance per hour, 1 cm cell): coenzyme 1.1 × 10^-4 M, over 3 hours
Protocol: 1) Coenzyme dissolved in the indicated buffer solution to 1.1 ×
2) Change in absorbance per hour given when measured by the use of a cell
with optical path length of 1 cm.
3) Changes in absorbance of ±0.002A or less over 3 hours immediately
after dissolution are expressed as "not changed".

[3] = tested on: CPK; assay: Inhibitory action of CAPS buffer solution on dehydrogenase reaction, serum CPK diagnostic kit; type: biochemical, human
Protocol: CPK in serum is increased along with injury of skeletal muscle or heart muscle. For determination of CPK activity, creatine phosphoric acid and adenosine-5'-diphosphate (hereinafter referred to as ADP) are employed as substrates and further hexokinase (hereinafter referred to as HK), glucose, glucose-6-phosphate dehydrogenase (hereinafter referred to as G6PDH) and NADP are added to the reaction medium. By the action of CPK, ADP is converted to adenosine-5'-triphosphate (hereinafter referred to as ATP), while glucose in the reaction medium is converted to glucose-6-phosphate by the action of the ATP and HK. Thereafter, the glucose-6-phosphate is converted to 6-phosphogluconic acid by the action of G6PDH and NADP and NADP is converted to a reduced form of NADP (hereinafter referred to as NADPH), along with the conversion, which results in increased absorbance at 340nm. The ATP amount produced by CPK is stoichiometrically equal to that of NADP to be reduced.
(§1) Four enzymes which are widely employed for examination in clinical diagnosis among various serum enzymes, were tested on the inhibitory actions by CAPS buffer solution. […]

[4] = tested on: GOT; assay: Inhibitory action of CAPS buffer solution on dehydrogenase reaction, serum GOT diagnostic kit; type: biochemical, human
Excerpt: (§2) For measuring serum GOT or GPT activity, the reaction can be carried out through addition of malic dehydrogenase to the reaction medium in case of GOT and LDH in case of GPT, together with the enzyme substrates such as α-ketoglutaric acid and L-aspartic acid for the former enzyme or α-ketoglutaric acid and L-alanine for the latter, and a reduced form of NAD (hereinafter referred to as NADH) in either case. Oxaloacetic acid derived from aspartic acid with GOT (in case of GPT, pyruvic acid derived from alanine, the GPT case being hereinafter referred to in the parenthesis) is converted to malic acid (lacetic acid) with malic dehydrogenase (lactic dehydrogenase) and NADH concurrently with oxidation of NADH to NAD, which results in decrease of absorbance at 340nm arising from NADH. An amount of the oxaloacetic acid (pyruvic acid) produced by GOT (GPT) is stoichiometrically equal to that of the NADH to be oxidized and a GOT (GPT) activity can be, therefore, determined from an oxidized amount of NADH which is obtained from an absorbance decrease at 340nm.
as §1

[5] = tested on: ALD; assay: Inhibitory action of CAPS buffer solution on dehydrogenase reaction, serum ALD diagnostic kit; type: biochemical, human
Excerpt: In measuring ALD activity, one can carry out by adding to a reaction medium fructose-1,6-diphosphate which is a substrate, togethe with triose phosphate isomerase (hereinafter referred to as TMI) and glycerol-1-phosphate dehydrogenase (hereinafter referred to as GDH). In this system, the products by ALD are converted to dioxyacetone phosphoric acid, which is then converted to glycerol-1-phosphate by the action of GDH and NADH. NADH is simultaneously oxidized to NAD. Hydrolysis of 1 mole of fructose-1,6-diphosphate with ALD results in oxidation of 2 moles of NADH.
Four enzymes which are widely employed for examination in clinical diagnosis among various serum enzymes, were tested on the inhibitory actions by CAPS buffer solution. Some of our experiments are summarized in the Table 1 wherein changes in absorbance at 340nm during the whole process of the reaction are automatically recorded and expressed in terms of inhibition degree by adding serum to a reaction mixture for proceeding the reaction and then adding thereto CAPS buffer solution with varied concentrations, pH values and amounts added.
1) Diagnostic kits available from Calbiochem U.S.A., used for measuring
GOT, GPT and CPK and diagnostic kits available from Boeringer-Manheim,
West Germany, used for measuring ALD, standard human serum
(Caltrol-Abnormal) available from Calbiochem used for serum. […]

[6] = tested on: GPT; assay: Inhibitory action of CAPS buffer solution on dehydrogenase reaction, serum GPT diagnostic kit; type: biochemical, human
Excerpt: as §2, §1

[7] = Influence of alkaline buffer solutions on absorption intensity of coenzyme at 340nm; type: physicochemical; conditions: for Absorption of NAD at 340nm: added to an enzyme reaction mixture containing EDTA
Excerpt: Such increasing action on absorption of NAD may continuously vary with the lapse of time and it is, therefore, difficult to correct influence caused therefrom.

[8] = tested on: dehydrogenase reaction; assay: Aqueous alkali solution of p-chloromercurybenzoate as stopping agent for dehydrogenase reaction; type: biochemical; conditions: reaction mixture of commercially available diagnostic kits
Excerpt: It is also reported in the art that an aqueous alkali solution of p-chloromercurybenzoate is applicable as a stopping agent for dehydrogenase reaction (E. Raabo, Scandinavian Journal of Clinical & Laboratory Investigation, 17, (1965), 265). […] Then, the prior solution seems to be of no practical use.

[9] = CAPS buffer solution 0.25M,pH12.5

With `NC(=O)c1ccc[n+]([C@@H]2O[C@H](COP(=O)([O-])OP(=O)(O)OC[C@H]3O[C@@H](n4cnc5c(N)ncnc54)[C@H](O)[C@@H]3O)[C@@H](O)[C@H]2O)c1` [NAD, nicotinamide-adenine dinucleotide] the “Time to peak of absorption intensity at 340nm” value [1] was 10 to 20 min, the “O.D. change at 340nm (change in absorbance per hour, 1 cm cell)” value ([2]; CAPS buffer solution 0.25M,pH12.0) was ≤ 0.005 A/hr/cm and the “O.D. change at 340nm (change in absorbance per hour, 1 cm cell)” value [2, 9] was ≤ 0.010 A/hr/cm. For the same compound, the “O.D. change at 340nm (change in absorbance per hour, 1 cm cell)” value ([2]; CAPS buffer solution 0.33M,pH11.5) was ≤ 0.005 A/hr/cm, the “O.D. change at 340nm (change in absorbance per hour, 1 cm cell)” value ([2]; CAPS buffer solution 0.5M,pH11.5) was ≤ 0.010 A/hr/cm and the “Stability of coenzyme in CAPS buffer solution” value ([2]; concentration 0.33M or more or pH 12 or higher) was “somewhat reduced”.
In the case of `NC(=O)c1ccc[n+]([C@@H]2O[C@H](COP(=O)([O-])OP(=O)(O)OC[C@H]3O[C@@H](n4cnc5c(N)ncnc54)[C@H](OP(=O)(O)O)[C@@H]3O)[C@@H](O)[C@H]2O)c1` [NADP, nicotinamide adenine dinucleotide phosphate], the “Time to peak of absorption intensity at 340nm” value [1] is reported as 10 to 20 min, the “O.D. change at 340nm (change in absorbance per hour, 1 cm cell)” value [2, 9] is reported as ≤ 0.005 A/hr/cm and the “Stability of coenzyme in CAPS buffer solution” value ([2]; pH 12.5 or higher) is reported as “also reduced”.
With `[Na+].[OH-]` [NaOH soln., sodium hydroxide] the “Complete inhibition concentration with aqueous NaOH soln. (Final concentration), CPK” value [3] was > 0.1 N, the “Complete inhibition concentration with aqueous NaOH soln. (Final concentration), GOT” value [4] was > 0.15 N and the “Complete inhibition concentration with aqueous NaOH soln. (Final concentration), ALD” value [5] was > 0.1 N. The “Complete inhibition concentration with aqueous NaOH soln. (Final concentration), GPT” value [6] was > 0.15 N.
For `N=C(N)NCCC[C@H](N)C(=O)O` [arginine buffer solution, arginine], the “Absorption of NAD at 340nm” value [7] was “increase in absorption of NAD at 340nm”.
For `NCC(=O)O` [glycine buffer solution, glycine], the “Absorption of NAD at 340nm” value [7] was “increase in absorption of NAD at 340nm”.
With `N=C(N)N` [guanidine buffer solution, guanidine] the “Absorption of NAD” value ([7]; at the concentration and pH value to inhibit an action of an enzyme) was “may increase absorption of NAD”.
In the case of `O=C(O)c1cc[c]([Hg][Cl])cc1` [p-chloromercurybenzoate], the “Inhibition of dehydrogenase reaction” value [8] is reported as “only partial inhibition”.
